Data reported in ChEMBL document CHEMBL1136647, “Visual detection of AMP and real-time monitoring of cyclic nucleotide phosphodiesterase (PDE) activity in neutral aqueous solution. Chemosensor-coupled assay of PDE and PDE inhibitors” (Bioorg Med Chem Lett, 2003).

Assay: Inhibitory concentration against phosphodiesterase from bovine heart

## CC(C)Cn1c(=O)n(C)c(=O)c2nc[nH]c21 [ISOBUTYLMETHYLXANTHINE]
  IC50: 36 µM
